Results from ChEMBL document CHEMBL1153484, “Design, synthesis and evaluation of N-[(3S)-pyrrolidin-3-yl]benzamides as selective noradrenaline reuptake inhibitors: CNS penetration in a more polar template” (Bioorg Med Chem Lett, 2009).
Active and inactive are the calls of the source. No cut-off for these calls is given here.

What was measured:
MDR1 (P-gp) [1] = experiment: Efflux ratio of permeability from […] in MDCK cells expressing MDR1 at 10 uM; assay type: ADME, cell-based, Canis lupus familiaris; settings: dog
Cytochrome P450 2C19 = Cytochrome P450 2C19 (Homo sapiens, UniProt P33261); experiment: Inhibition of CYP2C19; assay type: ADME
Sequence of Cytochrome P450 2C19 (P33261 whole entry): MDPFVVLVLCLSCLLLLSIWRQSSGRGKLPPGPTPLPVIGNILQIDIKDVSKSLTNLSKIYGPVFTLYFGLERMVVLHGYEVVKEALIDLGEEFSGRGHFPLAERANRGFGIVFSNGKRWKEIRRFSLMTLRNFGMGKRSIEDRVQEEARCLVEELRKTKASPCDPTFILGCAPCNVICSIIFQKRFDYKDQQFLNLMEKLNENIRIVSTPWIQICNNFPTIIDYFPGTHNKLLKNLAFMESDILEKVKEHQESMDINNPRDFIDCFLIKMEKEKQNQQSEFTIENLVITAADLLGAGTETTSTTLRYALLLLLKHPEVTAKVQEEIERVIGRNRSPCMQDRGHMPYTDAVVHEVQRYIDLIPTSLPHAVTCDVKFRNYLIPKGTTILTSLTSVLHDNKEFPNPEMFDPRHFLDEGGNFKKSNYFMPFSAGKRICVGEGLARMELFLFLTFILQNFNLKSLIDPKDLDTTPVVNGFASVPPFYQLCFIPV

[2] = target: Sodium channel protein type 5 subunit alpha (Homo sapiens, UniProt Q14524); experiment: Blockade of Nav1.5 sodium channel
hERG (KCNH2) = hERG (KCNH2) (Homo sapiens, UniProt Q12809); experiment: Displacement of [3H]dofetilide from human ERG at 10 uM; settings: probe [3H]dofetilide
Sequence of hERG (KCNH2) (Q12809 whole entry): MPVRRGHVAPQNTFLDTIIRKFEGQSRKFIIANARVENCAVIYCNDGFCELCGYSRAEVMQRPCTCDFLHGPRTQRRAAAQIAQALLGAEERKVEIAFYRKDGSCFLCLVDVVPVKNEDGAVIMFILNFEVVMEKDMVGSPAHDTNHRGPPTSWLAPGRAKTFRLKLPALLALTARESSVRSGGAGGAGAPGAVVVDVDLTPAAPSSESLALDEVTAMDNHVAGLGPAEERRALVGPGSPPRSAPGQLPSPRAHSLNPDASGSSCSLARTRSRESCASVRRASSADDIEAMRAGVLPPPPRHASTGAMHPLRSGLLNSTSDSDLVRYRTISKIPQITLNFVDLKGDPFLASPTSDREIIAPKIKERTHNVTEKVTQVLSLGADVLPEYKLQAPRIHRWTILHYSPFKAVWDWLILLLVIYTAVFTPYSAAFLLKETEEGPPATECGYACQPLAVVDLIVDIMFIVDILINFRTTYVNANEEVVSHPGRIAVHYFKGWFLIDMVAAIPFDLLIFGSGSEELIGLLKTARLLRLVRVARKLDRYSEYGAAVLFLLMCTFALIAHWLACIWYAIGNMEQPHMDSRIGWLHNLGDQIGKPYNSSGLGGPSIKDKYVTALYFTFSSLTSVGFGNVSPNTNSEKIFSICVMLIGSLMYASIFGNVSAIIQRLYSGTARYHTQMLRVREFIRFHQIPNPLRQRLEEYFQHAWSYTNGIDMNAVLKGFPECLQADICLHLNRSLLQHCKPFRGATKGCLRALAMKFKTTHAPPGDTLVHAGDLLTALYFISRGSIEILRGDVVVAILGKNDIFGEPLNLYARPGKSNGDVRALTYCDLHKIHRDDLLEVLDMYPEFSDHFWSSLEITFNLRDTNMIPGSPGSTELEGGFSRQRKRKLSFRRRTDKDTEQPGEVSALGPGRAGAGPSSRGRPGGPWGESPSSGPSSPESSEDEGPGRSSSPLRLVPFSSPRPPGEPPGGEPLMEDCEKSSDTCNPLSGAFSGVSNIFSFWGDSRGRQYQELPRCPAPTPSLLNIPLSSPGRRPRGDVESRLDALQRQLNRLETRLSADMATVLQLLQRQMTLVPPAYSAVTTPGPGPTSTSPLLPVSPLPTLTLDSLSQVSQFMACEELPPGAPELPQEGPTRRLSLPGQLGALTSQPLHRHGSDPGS

Cytochrome P450 3A4 [3] = target: T1, Cytochrome P450 3A4 (Homo sapiens, UniProt P08684); experiment: Inhibition of CYP3A4 using testosterone as substrate; assay type: ADME
T1 sequence (P08684 whole entry): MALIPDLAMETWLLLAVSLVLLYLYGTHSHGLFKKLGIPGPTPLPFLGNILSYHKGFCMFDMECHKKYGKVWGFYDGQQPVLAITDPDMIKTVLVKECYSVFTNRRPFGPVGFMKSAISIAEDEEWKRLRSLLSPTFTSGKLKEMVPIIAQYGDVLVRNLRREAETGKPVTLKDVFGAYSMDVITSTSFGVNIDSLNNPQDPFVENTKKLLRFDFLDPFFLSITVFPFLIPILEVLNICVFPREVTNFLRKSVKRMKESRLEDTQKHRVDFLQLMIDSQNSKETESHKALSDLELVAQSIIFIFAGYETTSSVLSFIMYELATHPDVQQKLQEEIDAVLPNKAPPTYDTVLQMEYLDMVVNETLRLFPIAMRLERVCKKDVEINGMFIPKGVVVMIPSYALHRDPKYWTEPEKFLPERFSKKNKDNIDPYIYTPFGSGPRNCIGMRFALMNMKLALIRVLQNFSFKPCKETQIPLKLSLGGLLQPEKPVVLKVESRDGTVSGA

Rattus norvegicus [4] = experiment: Effect on dihydroxyphenylacetic acid level in rat prefrontal cortex up to 3.2 mg/kg, sc by microdialysis method; assay type: functional, organism-based; parameters: dose 3.2 mg/kg
[5] = Intrinsic clearance in human liver microsomes; assay type: ADME, Microsome
[6] = target: Sodium-dependent serotonin transporter (Homo sapiens, UniProt P31645); experiment: Displacement of [3H]citalopram from human recombinant SERT expressed in HEK293 cells by scintillation proximity assay; assay type: cell-based
Sequence of Sodium-dependent serotonin transporter (P31645 whole entry): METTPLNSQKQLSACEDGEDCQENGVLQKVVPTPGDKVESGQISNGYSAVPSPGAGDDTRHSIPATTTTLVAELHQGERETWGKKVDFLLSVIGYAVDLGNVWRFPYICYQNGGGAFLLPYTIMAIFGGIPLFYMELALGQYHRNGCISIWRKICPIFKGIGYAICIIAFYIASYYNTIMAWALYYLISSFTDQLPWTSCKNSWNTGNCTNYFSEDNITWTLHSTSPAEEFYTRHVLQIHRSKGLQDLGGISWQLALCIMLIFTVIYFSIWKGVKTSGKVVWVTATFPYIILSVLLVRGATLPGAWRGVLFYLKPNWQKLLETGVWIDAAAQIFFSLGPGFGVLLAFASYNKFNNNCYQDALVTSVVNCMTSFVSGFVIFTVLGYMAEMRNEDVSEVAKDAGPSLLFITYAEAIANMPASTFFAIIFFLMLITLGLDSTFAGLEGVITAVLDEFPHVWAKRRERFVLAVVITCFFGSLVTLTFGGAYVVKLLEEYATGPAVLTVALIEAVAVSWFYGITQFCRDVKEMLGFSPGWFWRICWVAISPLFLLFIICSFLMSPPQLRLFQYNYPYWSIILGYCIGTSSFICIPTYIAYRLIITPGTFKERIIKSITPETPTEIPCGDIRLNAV

[7] = target: Sodium-dependent noradrenaline transporter (Homo sapiens, UniProt P23975); experiment: Displacement of [3H]nisoxetine from human recombinant NET expressed in HEK293 cells by scintillation proximity assay; assay type: cell-based
Sequence of Sodium-dependent noradrenaline transporter (P23975 whole entry): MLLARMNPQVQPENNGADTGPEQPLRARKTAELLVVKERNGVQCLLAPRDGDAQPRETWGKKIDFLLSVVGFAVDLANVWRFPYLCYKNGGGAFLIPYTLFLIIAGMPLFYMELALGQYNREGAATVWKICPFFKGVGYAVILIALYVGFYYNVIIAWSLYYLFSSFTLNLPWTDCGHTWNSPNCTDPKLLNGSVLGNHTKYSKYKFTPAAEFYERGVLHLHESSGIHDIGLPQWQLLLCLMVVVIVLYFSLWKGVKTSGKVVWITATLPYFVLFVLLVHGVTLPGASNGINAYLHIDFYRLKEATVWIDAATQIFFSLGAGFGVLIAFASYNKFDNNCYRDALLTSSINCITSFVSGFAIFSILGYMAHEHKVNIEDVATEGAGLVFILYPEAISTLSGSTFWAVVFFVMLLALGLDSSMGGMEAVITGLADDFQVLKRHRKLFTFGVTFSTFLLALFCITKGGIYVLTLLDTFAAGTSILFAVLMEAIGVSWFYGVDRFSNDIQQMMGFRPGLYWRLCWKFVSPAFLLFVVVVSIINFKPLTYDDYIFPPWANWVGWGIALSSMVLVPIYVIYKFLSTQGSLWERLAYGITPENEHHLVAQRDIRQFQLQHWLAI

[8] = target: T2, Muscarinic acetylcholine receptor M5 (Homo sapiens) (UniProt P08912); experiment: Binding affinity to human muscarinic M5 receptor at 10 uM
T2 sequence (whole entry): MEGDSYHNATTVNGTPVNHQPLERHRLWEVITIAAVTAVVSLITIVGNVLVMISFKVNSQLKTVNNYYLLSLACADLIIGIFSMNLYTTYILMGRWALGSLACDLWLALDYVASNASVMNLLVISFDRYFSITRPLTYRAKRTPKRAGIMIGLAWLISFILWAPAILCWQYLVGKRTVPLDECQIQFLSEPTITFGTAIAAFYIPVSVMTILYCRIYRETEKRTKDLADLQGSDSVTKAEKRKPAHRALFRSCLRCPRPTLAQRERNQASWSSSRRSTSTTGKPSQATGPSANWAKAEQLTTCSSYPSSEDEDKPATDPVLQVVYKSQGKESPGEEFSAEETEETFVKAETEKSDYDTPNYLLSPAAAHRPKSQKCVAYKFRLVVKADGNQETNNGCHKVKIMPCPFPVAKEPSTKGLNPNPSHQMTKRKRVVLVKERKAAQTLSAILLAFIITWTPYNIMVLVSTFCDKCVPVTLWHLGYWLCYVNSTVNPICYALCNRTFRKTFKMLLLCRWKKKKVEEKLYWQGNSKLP

[9] = target: Sodium-dependent dopamine transporter (Homo sapiens, UniProt Q01959); experiment: Displacement of radioligand from human recombinant DAT expressed in HEK293 cells by scintillation proximity assay; assay type: cell-based
Sequence of Sodium-dependent dopamine transporter (Q01959 whole entry): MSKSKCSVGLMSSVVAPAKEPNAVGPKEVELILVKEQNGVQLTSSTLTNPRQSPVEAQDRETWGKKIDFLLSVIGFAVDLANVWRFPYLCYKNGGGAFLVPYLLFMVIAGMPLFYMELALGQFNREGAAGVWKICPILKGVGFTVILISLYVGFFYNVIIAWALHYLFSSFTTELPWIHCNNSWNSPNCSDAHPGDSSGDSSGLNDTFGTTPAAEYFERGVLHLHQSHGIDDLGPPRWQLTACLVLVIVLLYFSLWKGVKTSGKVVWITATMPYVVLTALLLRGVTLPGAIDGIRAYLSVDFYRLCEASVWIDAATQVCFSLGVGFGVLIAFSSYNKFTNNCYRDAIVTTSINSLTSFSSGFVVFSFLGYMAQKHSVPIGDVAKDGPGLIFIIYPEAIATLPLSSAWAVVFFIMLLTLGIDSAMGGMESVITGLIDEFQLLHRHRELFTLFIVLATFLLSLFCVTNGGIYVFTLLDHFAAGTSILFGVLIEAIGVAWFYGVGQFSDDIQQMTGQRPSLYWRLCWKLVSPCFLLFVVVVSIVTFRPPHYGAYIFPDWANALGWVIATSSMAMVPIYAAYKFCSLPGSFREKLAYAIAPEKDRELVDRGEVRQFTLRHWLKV

[10] = Apparent permeability from apical to basolateral side of human Caco-2 cells at 10 uM; assay type: ADME, cell-based
[11] = target: T3, Muscarinic acetylcholine receptor M4 (Homo sapiens, UniProt P08173); experiment: Binding affinity to human muscarinic M4 receptor
T3 sequence (P08173 whole entry): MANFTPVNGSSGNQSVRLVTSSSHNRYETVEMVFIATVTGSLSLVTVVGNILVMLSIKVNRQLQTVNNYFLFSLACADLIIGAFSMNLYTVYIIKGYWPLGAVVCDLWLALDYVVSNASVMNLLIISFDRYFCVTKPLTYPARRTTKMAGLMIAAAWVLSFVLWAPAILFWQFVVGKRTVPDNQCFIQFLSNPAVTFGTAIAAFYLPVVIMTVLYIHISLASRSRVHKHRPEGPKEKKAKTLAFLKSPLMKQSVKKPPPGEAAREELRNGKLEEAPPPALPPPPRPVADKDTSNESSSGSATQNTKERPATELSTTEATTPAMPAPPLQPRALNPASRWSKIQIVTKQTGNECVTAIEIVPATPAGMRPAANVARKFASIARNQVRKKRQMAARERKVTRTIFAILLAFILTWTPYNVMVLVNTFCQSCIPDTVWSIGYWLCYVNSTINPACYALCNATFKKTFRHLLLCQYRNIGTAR

Transporter = Transporter (Rattus norvegicus, UniProt Q63380); experiment: Binding affinity to rat NET expressed in HEK293 cells; assay type: cell-based
MDR1 (P-gp) [12] = experiment: Apparent permeability from apical to basolateral side of MDCK cells expressing MDR1 at 10 uM; assay type: ADME, cell-based, Canis lupus familiaris; settings: dog
[13] = target: T4, Muscarinic acetylcholine receptor M4 (Homo sapiens) (UniProt P08173); experiment: Binding affinity to human muscarinic M4 receptor at 10 uM
T4 sequence (whole entry): T3 sequence (P08173 whole entry)

MDR1 (P-gp) [14] = experiment: Apparent permeability from basolateral to apical side of MDCK cells expressing MDR1 at 10 uM; assay type: ADME, cell-based, Canis lupus familiaris; settings: dog
Rattus norvegicus [15] = experiment: Increase in noradrenaline level in interstitial fluid of rat prefrontal cortex at 0.3 to 3.2 mg/kg, sc by microdialysis method relative to baseline level; assay type: functional; settings: dose mg/kg 0.3-3.2; route subcutaneous
[16] = Apparent permeability from basolateral to apical side of human Caco-2 cells at 10 uM; assay type: ADME, cell-based
[17] = target: Voltage-gated inwardly rectifying potassium channel KCNH2 (Homo sapiens, UniProt Q12809); experiment: Displacement of [3H]dofetilide from human ERG
Cytochrome P450 1A2 = target: T5, Cytochrome P450 1A2 (Homo sapiens, UniProt P05177); experiment: Inhibition of CYP1A2; assay type: ADME
T5 sequence (P05177 whole entry): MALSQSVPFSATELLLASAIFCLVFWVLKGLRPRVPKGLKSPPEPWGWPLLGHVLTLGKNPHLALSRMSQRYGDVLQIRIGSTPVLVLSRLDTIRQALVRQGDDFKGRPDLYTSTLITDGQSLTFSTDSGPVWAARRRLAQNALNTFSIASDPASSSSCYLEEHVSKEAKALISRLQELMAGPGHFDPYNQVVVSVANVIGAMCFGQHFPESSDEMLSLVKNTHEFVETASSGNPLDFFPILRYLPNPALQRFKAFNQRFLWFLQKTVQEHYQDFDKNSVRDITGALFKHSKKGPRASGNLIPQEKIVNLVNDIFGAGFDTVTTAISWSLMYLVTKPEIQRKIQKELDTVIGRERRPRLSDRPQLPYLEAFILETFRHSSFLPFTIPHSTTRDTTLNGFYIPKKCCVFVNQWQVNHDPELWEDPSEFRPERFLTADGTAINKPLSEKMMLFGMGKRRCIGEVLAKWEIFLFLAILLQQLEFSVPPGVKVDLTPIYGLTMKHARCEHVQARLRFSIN

Cytochrome P450 2C9 = Cytochrome P450 2C9 (Homo sapiens, UniProt P11712); experiment: Inhibition of CYP2C9; assay type: ADME
Sequence of Cytochrome P450 2C9 (P11712 whole entry): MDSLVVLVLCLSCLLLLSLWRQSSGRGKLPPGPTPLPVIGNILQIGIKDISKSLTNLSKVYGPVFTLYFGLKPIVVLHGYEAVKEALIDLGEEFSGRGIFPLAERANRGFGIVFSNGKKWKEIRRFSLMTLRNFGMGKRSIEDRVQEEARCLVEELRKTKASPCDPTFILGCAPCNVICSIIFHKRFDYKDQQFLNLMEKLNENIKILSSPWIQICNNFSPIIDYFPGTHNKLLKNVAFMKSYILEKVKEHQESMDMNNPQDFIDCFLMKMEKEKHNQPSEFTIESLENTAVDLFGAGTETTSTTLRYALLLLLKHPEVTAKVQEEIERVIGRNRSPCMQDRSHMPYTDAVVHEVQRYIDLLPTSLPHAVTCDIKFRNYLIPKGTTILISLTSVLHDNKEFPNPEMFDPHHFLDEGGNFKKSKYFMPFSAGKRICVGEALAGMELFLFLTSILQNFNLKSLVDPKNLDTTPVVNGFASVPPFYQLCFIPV

Cytochrome P450 3A4 [18] = target: T1, Cytochrome P450 3A4; experiment: Inhibition of CYP3A4 using felodipine as substrate; assay type: ADME
[19] = Dissociation constant, pKa of the compound; assay type: physicochemical
Rattus norvegicus [20] = experiment: Effect on 5-hydroxyindoleacetic acid level in rat prefrontal cortex up to 3.2 mg/kg, sc by microdialysis method; assay type: functional, organism-based; parameters: dose 3.2 mg/kg
Cytochrome P450 2D6 = Cytochrome P450 2D6 (Homo sapiens, UniProt P10635); experiment: Inhibition of CYP2D6; assay type: ADME
Sequence of Cytochrome P450 2D6 (P10635 whole entry): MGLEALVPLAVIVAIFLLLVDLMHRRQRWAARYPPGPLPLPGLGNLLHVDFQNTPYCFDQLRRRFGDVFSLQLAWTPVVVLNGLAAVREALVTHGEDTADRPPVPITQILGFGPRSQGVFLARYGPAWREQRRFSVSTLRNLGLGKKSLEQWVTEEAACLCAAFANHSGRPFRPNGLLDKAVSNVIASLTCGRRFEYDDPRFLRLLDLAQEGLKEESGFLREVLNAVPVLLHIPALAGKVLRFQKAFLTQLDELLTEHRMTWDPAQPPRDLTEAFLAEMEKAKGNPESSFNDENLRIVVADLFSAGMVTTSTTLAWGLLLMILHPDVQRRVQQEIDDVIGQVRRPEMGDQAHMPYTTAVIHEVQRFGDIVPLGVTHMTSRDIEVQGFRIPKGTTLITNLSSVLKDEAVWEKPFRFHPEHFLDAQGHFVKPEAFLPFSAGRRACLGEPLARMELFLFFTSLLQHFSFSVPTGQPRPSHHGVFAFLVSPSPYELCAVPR

[21] = target: T6, Muscarinic acetylcholine receptor M5 (Homo sapiens, UniProt P08912); experiment: Binding affinity to human muscarinic M5 receptor
T6 sequence (P08912 whole entry): T2 sequence (whole entry)

[22] = Binding affinity to sodium channel site 2
Cytochrome P450 3A4 [23] = target: T1, Cytochrome P450 3A4; experiment: Inhibition of CYP3A4 using midazolam as substrate; assay type: ADME
Rattus norvegicus [24] = experiment: Ex vivo NET occupancy in rat neocortical tissue at 3 mg/kg, sc after 1 hr by [3H]nisoxetine binding assay; assay type: functional; settings: route subcutaneous

With `O=C(c1ccccc1C(F)(F)F)N(CC1CCC1)[C@H]1CCNC1` the efflux ratio at 10 µM (MDR1 (P-gp) [1]) was 5.2, the IC50 (Cytochrome P450 2C19) was > 30 µM and the IC50 [2] was > 26 µM. The inhibition at 10 µM (hERG (KCNH2)) was 48%, the IC50 (Cytochrome P450 3A4 [3]) was 31.2 µM and the Activity (Rattus norvegicus [4]) was “inactive”. The microsomal CLint [5] was < 7 µL/min/mg, the Ki [6] was 0.224 µM and the Ki [7] was 0.006 µM. For the same molecule, the inhibition [8] was > 50%, the Ki [9] was 2.29 µM and the Papp A→B at 10 µM [10] was 16 ×10⁻⁶ cm/s. The Ki [11] was 4.3 µM, the Ki (Transporter) was 0.0039 µM and the Papp A→B at 10 µM (MDR1 (P-gp) [12]) was 11 ×10⁻⁶ cm/s. The inhibition [13] was > 50%, the Papp B→A at 10 µM (MDR1 (P-gp) [14]) was 57 ×10⁻⁶ cm/s and the Activity (Rattus norvegicus [15]) was 200%. For the same molecule, the Papp B→A at 10 µM [16] was 33 ×10⁻⁶ cm/s, the IC50 [17] was > 20 µM and the IC50 (Cytochrome P450 1A2) was > 30 µM. For the same molecule, the IC50 (Cytochrome P450 2C9) was > 30 µM, the IC50 (Cytochrome P450 3A4 [18]) was 22 µM and the pKa [19] was 9.5. For the same molecule, the Activity (Rattus norvegicus [20]) was “inactive”, the IC50 (Cytochrome P450 2D6) was 15.1 µM and the Ki [21] was 1.8 µM. The Ki [22] was 3.7 µM, the IC50 (Cytochrome P450 3A4 [23]) was 12.2 µM and the Activity (Rattus norvegicus [24]) was 52%.
